Assays:
[1] = biological target: T1, α7 nAChR (Homo sapiens, UniProt P36544); test: Bath application of test compound: modulation of ACh-evoked net charge responses in Xenopus oocytes; assay type: cell-based
T1 construct: expressed in transfected cells; host or cells: Xenopus laevis oocytes injected with cRNA
Method: (§1) We have extended this approach to defined receptor subtypes expressed in Xenopus oocytes. Experiments were conducted on cells expressing HS α4β2 (α4(2)β2(3)), LS α4β2 (α4(3)β2(2)), or α7 nAChR.
(§2) cDNA: Human nAChR receptor clones and concatamers were obtained from Dr. Jon Lindstrom (University of Pennsylvania, Philadelphia Pa.). The human RIC-3 clone, obtained from Dr. Millet Treinin (Hebrew University, Jerusalem Israel), was co-injected with α7 to improve the levels and speed of receptor expression.
(§3) Oocyte preparation: Oocytes were surgically removed from mature Xenopus laevis frogs and injected with 50 nl (5-20 ng) of appropriate nAChR subunit cRNAs as described previously (Horenstein et al., 2008).
(§4) Experiments were conducted using OpusXpress 6000A (Molecular Devices, Union City Calif.) and analyzed as described previously (Papke and Papke, 2002; Horenstein et al., 2008; Papke and Stokes, 2010).
(§5) Initial experiments were run for 50 minutes after the introduction of the experimental compounds into the bath.

[2] = biological target: T2, HS α4β2 (α4(2)β2(3)) nAChR (Homo sapiens, UniProt P17787+P43681); test: Bath application of test compound: inhibition of ACh-evoked peak currents in Xenopus oocytes; assay type: cell-based
T2 construct: expressed in transfected cells; host or cells: Xenopus laevis oocytes injected with cRNA
T2 sequence (P17787 26-502): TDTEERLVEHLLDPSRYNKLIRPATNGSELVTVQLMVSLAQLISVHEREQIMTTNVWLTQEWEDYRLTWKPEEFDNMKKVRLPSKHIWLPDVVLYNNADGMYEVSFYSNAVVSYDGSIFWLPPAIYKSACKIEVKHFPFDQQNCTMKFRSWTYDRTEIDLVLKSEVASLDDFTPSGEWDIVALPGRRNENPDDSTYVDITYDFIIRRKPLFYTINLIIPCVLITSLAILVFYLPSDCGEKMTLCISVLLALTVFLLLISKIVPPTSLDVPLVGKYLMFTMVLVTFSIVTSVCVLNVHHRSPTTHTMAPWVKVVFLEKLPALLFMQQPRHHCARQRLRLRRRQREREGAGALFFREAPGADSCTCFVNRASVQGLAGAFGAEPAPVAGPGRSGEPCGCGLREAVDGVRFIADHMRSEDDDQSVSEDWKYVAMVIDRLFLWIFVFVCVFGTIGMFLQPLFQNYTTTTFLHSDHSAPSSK
T2 sequence (P43681 29-627 limits assumed): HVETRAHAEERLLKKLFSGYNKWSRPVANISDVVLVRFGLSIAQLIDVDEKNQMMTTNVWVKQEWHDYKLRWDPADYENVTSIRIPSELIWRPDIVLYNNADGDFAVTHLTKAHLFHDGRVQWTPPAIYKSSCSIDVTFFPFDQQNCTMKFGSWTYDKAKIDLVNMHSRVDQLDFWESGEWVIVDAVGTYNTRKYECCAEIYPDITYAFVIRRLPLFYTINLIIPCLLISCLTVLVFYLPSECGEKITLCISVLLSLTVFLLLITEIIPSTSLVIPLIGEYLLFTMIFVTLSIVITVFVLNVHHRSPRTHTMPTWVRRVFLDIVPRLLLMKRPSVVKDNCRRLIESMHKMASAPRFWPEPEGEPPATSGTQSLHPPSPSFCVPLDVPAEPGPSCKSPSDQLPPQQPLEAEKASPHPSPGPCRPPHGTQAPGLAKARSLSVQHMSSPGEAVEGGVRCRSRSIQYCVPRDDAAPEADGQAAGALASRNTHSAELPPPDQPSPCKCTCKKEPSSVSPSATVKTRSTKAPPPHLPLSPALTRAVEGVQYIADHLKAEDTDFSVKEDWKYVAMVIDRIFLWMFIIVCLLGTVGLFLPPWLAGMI
T2 sequence (P17787 26-502): as the sequence (P17787 26-502) above
Method: as §1, §2, §3, §4, §5

[3] = biological target: T3, LS α4β2 (α4(3)β2(2)) nAChR (Homo sapiens, UniProt P17787+P43681); test: as above; assay type: cell-based
T3 construct: expressed in transfected cells; host or cells: Xenopus laevis oocytes injected with cRNA
T3 sequence (P17787 26-502): as above
T3 sequence (P43681 29-627 limits assumed): as the sequence (P43681 29-627 limits assumed) above
T3 sequence (P43681 29-627 limits assumed): as above
Method: as §1, §2, §3, §4, §5

[4] = biological target: T1, α7 nAChR; test: Acute co-application of ACh and S 24795, model fit of net charge responses in oocytes; assay type: cell-based
Text: FIG. 2.1 illustrates a model applied to the activation of nAChR by simultaneous co-applications of the full agonist “a” and a partial agonist “p”. […] The IMax of the full agonist is assigned a value of 1. The first and second terms of the equation represent the activation produced by the full agonist and partial agonists, respectively, scaled by their potencies and weighted by receptor availability. The third term allows noncompetitive effects of the partial agonist. If such noncompetitive activity is inhibitory, then ni is assigned a negative value.
Acute responses to agonist/partial agonist applications were fit with a general non-linear regression model, implemented as an option in a Windows data analyses and graphical presentation program (CAS Data Forge). The terms na, np, ni, Rmaxp, Inmaxp, EC50a, EC50p, and IC50p were given starting estimates based on the data obtained with the drugs applied separately. Tolerance factor (typically 1×10^−5) range limits for each parameter were specified. […] A predicted matrix was then calculated for each cell of the matrix, based on the a and p concentrations, the set of parameters listed above, and the governing equation. The residuals across all cells were calculated, and an iterative process was utilized to revise the parameters to minimize the residuals and allow the estimates to be revised accordingly. When the difference of estimates for any given parameter for consecutive iterations fell below the tolerance factor, that parameter was fixed at the last estimate. When all parameters were fixed or no convergent solution was found, the process stopped, and the set of parameters representing the best fit along with the resulting matrix was provided.
The Imax for the full agonist was constrained to 1 while the Imax for the partial agonist was a free parameter <1.0.
Curve fit values for the drugs when applied alone were used as seeds for the competitive interactions.

[5] = test system: α4(3)β2(2), α4(2)β2(3), α4(2)β2(2)α5 and α7 nAChR; test: Test of bupropion for receptor activation, oocytes; assay type: cell-based, human; details: 300 nM to 300 μM
[6] = biological target: T4, α4(2)β2(2)α5 nAChR (Homo sapiens, UniProt P17787+P30532+P43681); test: Bath application of test compound: inhibition of ACh-evoked responses in Xenopus oocytes; assay type: cell-based
T4 construct: expressed in transfected cells; host or cells: Xenopus laevis oocytes injected with cRNA
T4 sequence (P17787 26-502): as the sequence (P17787 26-502) above
T4 sequence (P43681 29-627 limits assumed): as the sequence (P43681 29-627 limits assumed) above
T4 sequence (P30532 23-468): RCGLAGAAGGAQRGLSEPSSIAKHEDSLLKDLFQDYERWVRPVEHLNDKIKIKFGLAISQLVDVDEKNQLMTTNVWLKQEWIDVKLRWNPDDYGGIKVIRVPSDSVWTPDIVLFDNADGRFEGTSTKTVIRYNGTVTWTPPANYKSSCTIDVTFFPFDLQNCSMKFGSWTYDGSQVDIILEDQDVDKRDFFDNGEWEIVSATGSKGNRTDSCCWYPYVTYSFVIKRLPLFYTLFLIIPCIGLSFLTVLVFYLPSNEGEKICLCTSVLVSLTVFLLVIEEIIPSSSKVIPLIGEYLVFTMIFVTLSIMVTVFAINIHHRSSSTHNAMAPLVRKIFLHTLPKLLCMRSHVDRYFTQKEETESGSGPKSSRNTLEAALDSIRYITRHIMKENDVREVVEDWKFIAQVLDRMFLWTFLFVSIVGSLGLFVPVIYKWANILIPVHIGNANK
Method: as §2, §3, §4, §5
(§6) Recently, attention has been drawn to α5 as a member of a gene cluster associated with high risk for cancer and heavy smoking (Saccone et al., 2007). In the periphery, α5 is most likely expressed in association with the other members of its gene cluster, α3 and β4.

[7] = biological target: T5, α4(2)β2(3) nAChR (Homo sapiens, UniProt P17787+P43681); test: Bupropion co-applied with ACh: inhibition of ACh-evoked responses, oocytes; assay type: cell-based; details: co-applied with 10 μM ACh
T5 construct: expressed in transfected cells; host or cells: Xenopus laevis oocytes injected with cRNA
T5 sequence (P17787 26-502): as the sequence (P17787 26-502) above
T5 sequence (P43681 29-627 limits assumed): as the sequence (P43681 29-627 limits assumed) above
T5 sequence (P17787 26-502): as the sequence (P17787 26-502) above
Method: as §5

[8] = biological target: T1, α7 nAChR; test: as above; assay type: cell-based
Method: as §5

[9] = biological target: T6, α4(3)β2(2) nAChR (Homo sapiens, UniProt P17787+P43681); test: as above; assay type: cell-based; details: co-applied with 30 μM ACh
T6 construct: expressed in transfected cells; host or cells: Xenopus laevis oocytes injected with cRNA
T6 sequence (P17787 26-502): as above
T6 sequence (P43681 29-627 limits assumed): as the sequence (P43681 29-627 limits assumed) above
T6 sequence (P43681 29-627 limits assumed): as above
Method: as §5

[10] = biological target: T7, α4β2α5 nAChR (Homo sapiens, UniProt P17787+P30532+P43681); test: as above; assay type: cell-based; details: co-applied with 3 μM ACh
T7 construct: expressed in transfected cells; host or cells: Xenopus laevis oocytes injected with cRNA
T7 sequence (P17787 26-502): as the sequence (P17787 26-502) above
T7 sequence (P43681 29-627 limits assumed): as the sequence (P43681 29-627 limits assumed) above
T7 sequence (P30532 23-468): as the sequence (P30532 23-468) above

[11] = biological target: T7, α4β2α5 nAChR; test: Agonist activation of α4β2α5 receptors in oocytes; assay type: cell-based
Text: as §6

[12] = noncompetitive inhibition factor

T1 sequence (P36544 23-502): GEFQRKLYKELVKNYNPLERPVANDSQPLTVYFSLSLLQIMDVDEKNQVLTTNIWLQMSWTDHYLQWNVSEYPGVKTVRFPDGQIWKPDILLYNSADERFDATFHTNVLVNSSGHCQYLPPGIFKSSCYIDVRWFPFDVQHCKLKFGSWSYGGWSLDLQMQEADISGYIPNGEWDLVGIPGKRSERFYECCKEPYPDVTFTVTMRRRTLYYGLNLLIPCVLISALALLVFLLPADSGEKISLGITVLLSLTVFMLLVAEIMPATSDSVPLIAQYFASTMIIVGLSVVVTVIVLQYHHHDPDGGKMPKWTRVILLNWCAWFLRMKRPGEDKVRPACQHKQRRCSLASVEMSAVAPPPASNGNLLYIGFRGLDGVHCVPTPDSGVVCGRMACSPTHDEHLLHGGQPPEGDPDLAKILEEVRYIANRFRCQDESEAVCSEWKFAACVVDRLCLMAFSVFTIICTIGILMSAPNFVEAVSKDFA

C[n+]1ccccc1CC(=O)c1ccc(Br)cc1 [S 24795, 2-[2-(4-bromophenyl)-2-oxoethyl]-1-methylpyridinium]
IC50 ([1]; read-out: IC50 for the inhibition of ACh evoked responses by bath applications of agonists and partial agonists, Table 2, after 30±4 min bath application, 60 μM ACh, * = inhibition following a phase of potentiation): 15 µM
IC50 ([2]; read-out: IC50 for the inhibition of ACh evoked responses by bath applications of agonists and partial agonists, Table 2, after 30±4 min bath application, 10 μM ACh): 53 µM
IC50 ([3]; read-out: IC50 for the inhibition of ACh evoked responses by bath applications of agonists and partial agonists, Table 2, after 30±4 min bath application, 30 μM ACh): 36 µM
Activation n (Hill coefficient, best fit) [4]: 0.85
best fit IC50 relative to EC50 (higher) [4]: 70 fold
EC50 ([4]; net charge, read-out: Activation EC50 (best fit)): 14 µM
Inhibition Inmax of the partial agonist (best fit) [4, 12]: 1.0
Inhibition n (Hill coefficient, best fit) [4, 12]: 0.26
IC50 ([4]; noncompetitive inhibition factor, read-out: Inhibition IC50 of the partial agonist (best fit)): 1000 µM
Activation Rmax (best fit) ([4]; relative to ACh maximum, ACh constrained to 1): 0.20

CC(NC(C)(C)C)C(=O)c1cccc(Cl)c1 (stereo not drawn) [bupropion]
Bath application n (Hill slope of inhibition) ([1]; 30 minutes in bath): −1.5 ± 0.5
IC50 ([1]; 30 minutes in bath, read-out: Bath application IC50): 16 ± 3 µM
receptor activation by bupropion [5]: no activation above our level of detection
Bath application n (Hill slope of inhibition) ([2]; 30 minutes in bath): −0.40 ± 0.10
Bath application n (Hill slope of inhibition) ([3]; 30 minutes in bath): −1.2 ± 0.4
Bath application n (Hill slope of inhibition) ([6]; 30 minutes in bath): −0.47 ± 0.09
Co-application n (Hill slope of inhibition) [7]: −0.80 ± 0.05
Co-application n (Hill slope of inhibition) ([8]; co-applied with 60 μM ACh): −0.74 ± 0.09
IC50 ([8]; read-out: Co-application IC50): 46 ± 7 µM
Co-application n (Hill slope of inhibition) [9]: −0.93 ± 0.11
Co-application n (Hill slope of inhibition) [10]: −0.70 ± 0.04

CN1CCCC1c1cccnc1 (stereo not drawn) [Nicotine, nicotine]
efficacy for α4β2α5 receptors, % that of ACh [11]: approximately 35%

c1cnc2cc3c(cc2n1)C1CNCC3C1 [Varenicline, 7,8,9,10-tetrahydro-6,10-methano-6H-pyrazino (2,3-h)(3) benzazepine]
inhibition at 1 µM ([6]; read-out: inhibition of transient ACh-evoked responses): 100%
efficacy for α4β2α5 receptors, % that of ACh [11]: 9±1%

Reference: patent US9233109B2, “Compositions, methods of use, and methods of treatment” (UNIVERSITY OF FLORIDA RESEARCH FOUNDATION, INC., priority 2010, dated 2016)
